Data: patent publication US20240010653A1, “Crystalline Forms of 4-amino-N-[4-(methoxymethyl)phenyl]-7-(1-methylcyclopropyl)-6-(3-morpholinoprop-1-yn-1-yl)-7H-pyrrolo[2,3-d]pyrimidine-5-carboxamide” (Helsinn Healthcare SA, priority 2020, published 2024)
Structures can show the parent of a compound that is named as a salt.

Assays:
Assay type in all cases: physicochemical
[1] = Saturated solution in methanol; settings: room temperature
Description: A saturated solution of HM06 1:2 HCl Form 1 in methanol approx. 50 mg/mL was prepared and allowed to stir at room temperature overnight (18 hours). After this time, it was filtered and left to evaporate at 25° C./700 mbar. The preparation of the sample plate sealed with Kapton film was performed under 40-45% RH. Some very minor signals of Form 1 were present.

[2] = Storage stability, accelerated conditions 40° C./75% relative humidity; settings: for HPLC assay (anhydrous) / HPLC purity: 12-HM06 / HPLC purity: impurity 12-HM06.il (RRT 0.92-.94) / HPLC purity: impurity RRT 0.56 / HPLC purity: impurity RRT 1.11 / HPLC purity: impurity RRT 1.20-1.24 / HPLC purity: impurity RRT 1.41-1.42 / Water content (KF) / XRPD: 40° C./75% relative humidity
Description: (§1) Samples of HM06 1:2 HCl Form 1 were subjected to accelerated storage conditions and long-term storage.
Samples of HM06 1:2 HCl Form 1 from the same lot were stored at 40° C. and 75% relative humidity for 24 months with testing at regular intervals.

[3] = Storage stability, long term conditions 25° C. and 60% relative humidity
Text: as §1
Table 25 sets forth the sample analysis at times 0, 3 months, 6 months, 9 months, 12 months, 18 months, and 24 months.

[4] = Uptake of water from air by dehydrated form, followed by VP-XRPD; settings: after vacuum 0.07 mbar; ambient condition, RH about 80%
Description: VP-XRPD measurements were performed on the Panalytical X'pert equipped with the Anton Paar TTK450 chamber which allowed for measurement of the powder in-situ at controlled temperature and/or under vacuum.
The first measurement was collected at RT and atmospheric pressure. The sample was then left for 15 minutes under vacuum (0.07 mbar).
The uptake of water by Form 1-bis was observed via XRPD by following the difference in the pattern in the range 2θ=25.5°-27-5° (see FIG. 5C). Under vacuum the highest peak is the peak at 2θ=26.7° while after exposure of the sample in air 2 minutes the highest is at 2θ=26.4°. The peak at 2θ=26.4° moves to 2θ=26.2° in 20 minutes. HM06 1:2 HCl crystalline Form 1-bis uptakes the water from the atmosphere as soon as the powder is exposed to the air, and it reaches the diffraction pattern of the starting material in 20 minutes (see […] 5D). This experiment was done in ambient condition with RH % of the room about at 80%.

[5] = Solid form (polymorph) stability on storage, followed by XRPD; settings: for Form stability (XRPD) after storage in a sealed vial: seven days in a sealed vial
Description: The stability of Form 4-bis was assessed after seven days of storage in a sealed vial.
HM06 1:2 HCl Form 4 exposed powder was stored overnight at room temperature under 43% RH.
The stability of the HM06 1:2 HCl Form 5-bis sample was assessed after 18 hours exposed to air and after one week in a sealed vial, both at room temperature.
Form 5-bis was measured after 18 hours exposed powder at room temperature. The % RH was approx. of 45%.
These changes could not be associated with conversion into one of the other isolated polymorphs observed during this study: thus, the sample was considered not stable.
HM06 1:2 HCl Form 5-bis was measured after seven days at room temperature in a sealed vial.
Form 6 was collected after evaporation of HM06 1:2 HCl Form 1 in a 1:1 acetonitrile/water solution at room temperature under low pressure.

COCc1ccc(NC(=O)c2c(C#CCN3CCOCC3)n(C3(C)CC3)c3ncnc(N)c23)cc1 [HM06 1:2 HCl Form 1, 4-amino-N-[4-(methoxymethyl)phenyl]-7-(1-methylcyclopropyl)-6-(3-morpholinoprop-1-yn-1-yl)-7H-pyrrolo[2,3-d]pyrimidine-5-carboxamide]
Concentration of saturated solution in methanol [1]: approx. 50 mg/mL
HPLC assay (anhydrous) ([2]; 0 months): 99%
HPLC purity: 12-HM06 ([2]; 0 months): 99%
HPLC purity: impurity 12-HM06.il (RRT 0.92-.94) ([2]; 0 months): 0.51%
HPLC purity: impurity RRT 0.56 ([2]; 0 months): not detected
HPLC purity: impurity RRT 1.11 ([2]; 0 months): not detected
HPLC purity: impurity RRT 1.20-1.24 ([2]; 0 months): 0.20%
HPLC purity: impurity RRT 1.41-1.42 ([2]; 0 months): 0.06%
Water content (KF) ([2]; 0 months): 6%
XRPD ([2]; 0 months): Crystalline
HPLC assay (anhydrous) ([2]; 1 month): 100%
HPLC purity: 12-HM06 ([2]; 1 month): 99%
HPLC purity: impurity 12-HM06.il (RRT 0.92-.94) ([2]; 1 month): 0.51%
HPLC purity: impurity RRT 0.56 ([2]; 1 month): not detected
HPLC purity: impurity RRT 1.11 ([2]; 1 month): not detected
HPLC purity: impurity RRT 1.20-1.24 ([2]; 1 month): 0.20%
HPLC purity: impurity RRT 1.41-1.42 ([2]; 1 month): 0.06%
Water content (KF) ([2]; 1 month): 6%
XRPD ([2]; 1 month): Crystalline
HPLC assay (anhydrous) ([2]; 3 months): 102%
HPLC purity: 12-HM06 ([2]; 3 months): 99%
HPLC purity: impurity 12-HM06.il (RRT 0.92-.94) ([2]; 3 months): 0.51%
HPLC purity: impurity RRT 0.56 ([2]; 3 months): not detected
HPLC purity: impurity RRT 1.11 ([2]; 3 months): not detected
HPLC purity: impurity RRT 1.20-1.24 ([2]; 3 months): 0.20%
HPLC purity: impurity RRT 1.41-1.42 ([2]; 3 months): 0.06%
Water content (KF) ([2]; 3 months): 5%
XRPD ([2]; 3 months): Crystalline
HPLC assay (anhydrous) ([2]; 6 months): 98%
HPLC purity: 12-HM06 ([2]; 6 months): 99%
HPLC purity: impurity 12-HM06.il (RRT 0.92-.94) ([2]; 6 months): 0.51%
HPLC purity: impurity RRT 0.56 ([2]; 6 months): 0.05%
HPLC purity: impurity RRT 1.11 ([2]; 6 months): 0.05%
HPLC purity: impurity RRT 1.20-1.24 ([2]; 6 months): 0.19%
HPLC purity: impurity RRT 1.41-1.42 ([2]; 6 months): 0.06%
Water content (KF) ([2]; 6 months): 5%
XRPD ([2]; 6 months): Crystalline
Storage stability, overall result ([2]; accelerated storage conditions and long-term storage): remained stable and crystalline
HPLC assay (anhydrous) ([3]; 0 months): 99%
HPLC purity: 12-HM06 ([3]; 0 months): 99%
HPLC purity: impurity 12-HM06.il (RRT 0.92-0.94) ([3]; 0 months): 0.51%
HPLC purity: impurity RRT 1.20-1.24 ([3]; 0 months): 0.20%
HPLC purity: impurity RRT 1.41-1.42 ([3]; 0 months): 0.06%
Water content (KF) ([3]; 0 months): 6%
XRPD ([3]; 0 months): Crystalline
HPLC assay (anhydrous) ([3]; 3 months): 102%
HPLC purity: 12-HM06 ([3]; 3 months): 99%
HPLC purity: impurity 12-HM06.il (RRT 0.92-0.94) ([3]; 3 months): 0.51%
HPLC purity: impurity RRT 1.20-1.24 ([3]; 3 months): 0.20%
HPLC purity: impurity RRT 1.41-1.42 ([3]; 3 months): 0.06%
Water content (KF) ([3]; 3 months): 5%
XRPD ([3]; 3 months): Crystalline
HPLC assay (anhydrous) ([3]; 6 months): 99%
HPLC purity: 12-HM06 ([3]; 6 months): 99%
HPLC purity: impurity 12-HM06.il (RRT 0.92-0.94) ([3]; 6 months): 0.51%
HPLC purity: impurity RRT 1.20-1.24 ([3]; 6 months): 0.20%
HPLC purity: impurity RRT 1.41-1.42 ([3]; 6 months): 0.06%
Water content (KF) ([3]; 6 months): 5%
XRPD ([3]; 6 months): Crystalline
HPLC assay (anhydrous) ([3]; 9 months): 99%
HPLC purity: 12-HM06 ([3]; 9 months): 99%
HPLC purity: impurity 12-HM06.il (RRT 0.92-0.94) ([3]; 9 months): 0.51%
HPLC purity: impurity RRT 1.20-1.24 ([3]; 9 months): 0.20%
HPLC purity: impurity RRT 1.41-1.42 ([3]; 9 months): 0.06%
Water content (KF) ([3]; 9 months): 5%
XRPD ([3]; 9 months): Crystalline
HPLC assay (anhydrous) ([3]; 12 months): 99%
HPLC purity: 12-HM06 ([3]; 12 months): 99%
HPLC purity: impurity 12-HM06.il (RRT 0.92-0.94) ([3]; 12 months): 0.51%
HPLC purity: impurity RRT 1.20-1.24 ([3]; 12 months): 0.20%
HPLC purity: impurity RRT 1.41-1.42 ([3]; 12 months): 0.06%
Water content (KF) ([3]; 12 months): 6%
XRPD ([3]; 12 months): Crystalline
HPLC assay (anhydrous) ([3]; 18 months): 97%
HPLC purity: 12-HM06 ([3]; 18 months): 99%
HPLC purity: impurity 12-HM06.il (RRT 0.92-0.94) ([3]; 18 months): 0.51%
HPLC purity: impurity RRT 0.85 ([3]; 18 months): 0.05%
HPLC purity: impurity RRT 1.11 ([3]; 18 months): 0.05%
HPLC purity: impurity RRT 1.20-1.24 ([3]; 18 months): 0.19%
HPLC purity: impurity RRT 1.41-1.42 ([3]; 18 months): 0.06%
Water content (KF) ([3]; 18 months): 5%
XRPD ([3]; 18 months): Crystalline
HPLC assay (anhydrous) ([3]; 24 months): 100%
HPLC purity: 12-HM06 ([3]; 24 months): 99%
HPLC purity: impurity 12-HM06.il (RRT 0.92-0.94) ([3]; 24 months): 0.51%
HPLC purity: impurity RRT 0.85 ([3]; 24 months): 0.06%
HPLC purity: impurity RRT 1.20-1.24 ([3]; 24 months): 0.19%
HPLC purity: impurity RRT 1.41-1.42 ([3]; 24 months): 0.06%
Water content (KF) ([3]; 24 months): 6%
XRPD ([3]; 24 months): Crystalline

COCc1ccc(NC(=O)c2c(C#CCN3CCOCC3)n(C3(C)CC3)c3ncnc(N)c23)cc1 [HM06 1:2 HCl Form 1-bis, 4-amino-N-[4-(methoxymethyl)phenyl]-7-(1-methylcyclopropyl)-6-(3-morpholinoprop-1-yn-1-yl)-7H-pyrrolo[2,3-d]pyrimidine-5-carboxamide]
Time in air to reach the diffraction pattern of the starting material (Form 1) by uptake of water [4]: 20 min

COCc1ccc(NC(=O)c2c(C#CCN3CCOCC3)n(C3(C)CC3)c3ncnc(N)c23)cc1 [HM06 1:2 HCl Form 4, 4-amino-N-[4-(methoxymethyl)phenyl]-7-(1-methylcyclopropyl)-6-(3-morpholinoprop-1-yn-1-yl)-7H-pyrrolo[2,3-d]pyrimidine-5-carboxamide]
Form stability (XRPD) of exposed powder ([5]; stored overnight at room temperature under 43% RH): No significant modifications

COCc1ccc(NC(=O)c2c(C#CCN3CCOCC3)n(C3(C)CC3)c3ncnc(N)c23)cc1 [HM06 1:2 HCl Form 4-bis, 4-amino-N-[4-(methoxymethyl)phenyl]-7-(1-methylcyclopropyl)-6-(3-morpholinoprop-1-yn-1-yl)-7H-pyrrolo[2,3-d]pyrimidine-5-carboxamide]
Form stability (XRPD) after storage in a sealed vial ([5]; listed as Form 4-bis): complete conversion into Form 1

COCc1ccc(NC(=O)c2c(C#CCN3CCOCC3)n(C3(C)CC3)c3ncnc(N)c23)cc1 [HM06 1:2 HCl Form 5-bis, 4-amino-N-[4-(methoxymethyl)phenyl]-7-(1-methylcyclopropyl)-6-(3-morpholinoprop-1-yn-1-yl)-7H-pyrrolo[2,3-d]pyrimidine-5-carboxamide]
Form stability (XRPD) of exposed powder ([5]; 18 hours exposed to air at room temperature, approx. 45% RH): not stable
Form stability (XRPD) after storage in a sealed vial [5]: started to convert into Form 1

COCc1ccc(NC(=O)c2c(C#CCN3CCOCC3)n(C3(C)CC3)c3ncnc(N)c23)cc1 [HM06 1:2 HCl Form 6, 4-amino-N-[4-(methoxymethyl)phenyl]-7-(1-methylcyclopropyl)-6-(3-morpholinoprop-1-yn-1-yl)-7H-pyrrolo[2,3-d]pyrimidine-5-carboxamide]
Form stability on storage ([5]; 6 days of storage, room temperature under low pressure): conversion into Form 1
